Data from article PMC3504386 (Chemmedchem, 2010).

Target: T1, CTP synthetase (CTPS) (Trypanosoma brucei, UniProt Q4GZ95)
T1 construct: gene TB927.1.1240
Experiment: coupled spectrophotometric enzyme assay (pyruvate kinase/lactate dehydrogenase), […] min pre-incubation on ice
Type: biochemical

T1 sequence (Q4GZ95 entry or part of it): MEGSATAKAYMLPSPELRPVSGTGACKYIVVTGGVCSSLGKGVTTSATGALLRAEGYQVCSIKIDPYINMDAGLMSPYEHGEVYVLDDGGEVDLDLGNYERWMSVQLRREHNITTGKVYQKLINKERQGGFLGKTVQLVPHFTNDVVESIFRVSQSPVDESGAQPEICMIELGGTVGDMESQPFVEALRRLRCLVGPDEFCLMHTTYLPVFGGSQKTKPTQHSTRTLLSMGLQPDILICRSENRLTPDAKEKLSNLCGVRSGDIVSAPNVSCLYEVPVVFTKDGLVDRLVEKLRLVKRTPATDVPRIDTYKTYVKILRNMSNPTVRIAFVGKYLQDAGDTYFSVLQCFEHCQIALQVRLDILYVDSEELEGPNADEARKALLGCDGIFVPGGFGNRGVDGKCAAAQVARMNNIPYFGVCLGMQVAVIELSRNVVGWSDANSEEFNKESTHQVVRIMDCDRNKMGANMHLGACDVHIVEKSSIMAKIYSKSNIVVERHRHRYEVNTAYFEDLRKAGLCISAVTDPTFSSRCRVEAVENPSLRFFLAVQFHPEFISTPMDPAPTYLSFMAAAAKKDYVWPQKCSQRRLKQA

Compound	IC50 [nM]
N[C@H](C(=O)O)[C@@H]1CC(Cl)=NO1 [compound 1, Acivicin]	320 ± 25
N[C@H](C(=O)O)[C@@H]1CC(Br)=NO1 [compound 2, (αS,5S)-α-amino-3-bromo-4,5-dihydroisoxazol-5-yl acetic acid]	98 ± 10
